Experiments:
Format in all cases: in vivo
[1] = tested on: Geranium pusillum; assay: Field trial Example 1, successive application: damage on GERPU
Excerpt: (§1) Aminiopyralid was used as commercial aquaeous solution having an active ingredient concentration of 240 g/l (Milestone™). Metazachlor was used as a commercial suspension concentrate having an active ingredient concentration of 500 g/l (Butisan S®).
(§2) The performance of aminopyralid applied as an alone treatment at 15, 30 and 50 g a.i./ha applied as an early post emergence treatment and an post emergence treatment in comparison to two different applications including metazachlor at 500 g a.i./ha as an early post emergence application in succession of aminopyralid as a post emergence application at 15 and 30 g a.i./ha was assessed in an oilseed rape field trials.
(§3) The early post emergence treatment was applied by means of fine distributed nozzles at the growth stage (GS) of the crop BBCH 11-12.
(§4) The post emergence treatment was applied by means of fine distributed nozzles at the growth stage (GS) of the crop BBCH 13-14.
(§5) The test period extended over the autumn and spring season (205 days).
(§6) In the following experiments, the herbicidal activity for the individual herbicide compounds (solo application) and of the herbicidal succession was assessed 4 times:
(§7) The evaluation for the damage on undesired weeds caused by the chemical compositions was carried out using a scale from 0 to 100%, compared to the untreated control plants. Here, 0 means no damage and 100 means complete destruction of the plants.

[2] = tested on: Anthemis arvensis; assay: Field trial Example 2, combined application: ANTAR
Method: as §1, §7
(§8) The value E, which is to be expected if the activity of the individual compounds is just additive, was calculated using the method of S. R. Colby (1967) “Calculating synergistic and antagonistic responses of herbicide combinations”, Weeds 15, p. 22 ff.
(§9) The performance of aminopyralid, applied as an alone treatment at […] and 15 g ai/ha, and the performance of metazachlor, applied as an alone treatment at 375 and 500 g ai/ha, as well as the mixtures of the both compounds have been assessed in winter oilseed rape field trials. The trials have been conducted in Germany at two locations.
(§10) Post emergence treatment was applied by means of fine distributed nozzels at the growth stage (GS/BBCH 11/12).

[3] = tested on: Alopecurus myosuroides; assay: Field trial Example 2, combined application: ALOMY; details: Aminopyralid 7.5 g ai/ha solo, 28 DAT
Method: as §1, §7, §8, §9, §10

[4] = tested on: Anthemis arvensis; assay: Field trial Example 1, successive application: damage on ANTAR
Excerpt: as §1, §2, §3, §4, §5, §6, §7

[5] = 30 g ai/ha, treatment A early post emergence, DAT 65/DALT 50
[6] = 30 g ai/ha, treatment A early post emergence, DAT 176/DALT 161
[7] = 30 g ai/ha, treatment B post emergence, DAT 25/DALT 10
[8] = 30 g ai/ha, treatment B post emergence, DAT 65/DALT 50
[9] = 30 g ai/ha, treatment B post emergence, DAT 176/DALT 161
[10] = 50 g ai/ha, treatment A early post emergence, DAT 25/DALT 10
[11] = 50 g ai/ha, treatment A early post emergence, DAT 65/DALT 50
[12] = 50 g ai/ha, treatment A early post emergence, DAT 176/DALT 161
[13] = 50 g ai/ha, treatment B post emergence, DAT 25/DALT 10
[14] = 50 g ai/ha, treatment B post emergence, DAT 65/DALT 50
[15] = 50 g ai/ha, treatment B post emergence, DAT 176/DALT 161
[16] = aminopyralid 15 g ai/ha, treatment A, DAT 205/DALT 190
[17] = aminopyralid 15 g ai/ha, treatment B, DAT 205/DALT 190
[18] = aminopyralid 30 g ai/ha, treatment A, DAT 205/DALT 190
[19] = aminopyralid 30 g ai/ha, treatment B, DAT 205/DALT 190
[20] = aminopyralid 50 g ai/ha, treatment A, DAT 205/DALT 190
[21] = aminopyralid 50 g ai/ha, treatment B, DAT 205/DALT 190

SMILES: Nc1cc(Cl)nc(C(=O)O)c1Cl [aminopyralid, 4-amino-3,6-dichloropyridine-2-carboxylic acid]
- damage on GERPU [1, 5]: 90%
- damage on GERPU [1, 6]: 95%
- damage on GERPU [1, 7]: 78%
- damage on GERPU [1, 8]: 82%
- damage on GERPU [1, 9]: 93%
- damage on GERPU [1, 10]: 98%
- damage on GERPU [1, 11]: 98%
- damage on GERPU [1, 12]: 97%
- damage on GERPU [1, 13]: 78%
- damage on GERPU [1, 14]: 83%
- damage on GERPU [1, 15]: 97%
- damage on GERPU [1, 16]: 73%
- damage on GERPU [1, 17]: 73%
- damage on GERPU [1, 18]: 99%
- damage on GERPU [1, 19]: 96%
- damage on GERPU [1, 20]: 98%
- damage on GERPU [1, 21]: 98%
- % activity ([2]; Aminopyralid 7.5 g ai/ha solo, 29 DAT): 77%
- % activity ([2]; Aminopyralid 15 g ai/ha solo, 29 DAT): 94%
- % activity ([2]; Aminopyralid 15 g ai/ha solo, 78 DAT): 96%
- % activity [3]: 60%
- damage on ANTAR ([4]; 15 g ai/ha, treatment A early post emergence, DAT 25/DALT 10): 97%
- damage on ANTAR ([4]; 15 g ai/ha, treatment A early post emergence, DAT 65/DALT 50): 96%
- damage on ANTAR ([4]; 15 g ai/ha, treatment A early post emergence, DAT 176/DALT 161): 100%
- damage on ANTAR ([4]; 15 g ai/ha, treatment B post emergence, DAT 25/DALT 10): 87%
- damage on ANTAR ([4]; 15 g ai/ha, treatment B post emergence, DAT 65/DALT 50): 87%
- damage on ANTAR ([4]; 15 g ai/ha, treatment B post emergence, DAT 176/DALT 161): 98%
- damage on ANTAR ([4]; 30 g ai/ha, treatment A early post emergence, DAT 25/DALT 10): 100%
- damage on ANTAR [4, 5]: 98%
- damage on ANTAR [4, 6]: 100%
- damage on ANTAR [4, 7]: 82%
- damage on ANTAR [4, 8]: 91%
- damage on ANTAR [4, 9]: 100%
- damage on ANTAR [4, 10]: 100%
- damage on ANTAR [4, 11]: 100%
- damage on ANTAR [4, 12]: 100%
- damage on ANTAR [4, 13]: 93%
- damage on ANTAR [4, 14]: 94%
- damage on ANTAR [4, 15]: 98%
- damage on ANTAR [4, 16]: 100%
- damage on ANTAR [4, 17]: 100%
- damage on ANTAR [4, 18]: 100%
- damage on ANTAR [4, 19]: 100%
- damage on ANTAR [4, 20]: 100%
- damage on ANTAR [4, 21]: 100%

Source: US20110092367A1, “Herbicidal Compositions Comprising 4-amino-3,6-dichloropyridine-2-carboxylic Acid” (BASF SE, priority 2008, published 2011)
